Experiments:
[1] = test system: PAX2 mRNA; assay: Down regulation of PAX2 protein expression (western blot) in P388 cells; assay type: cell-based, mouse; conditions: 1 μM; for PAX2 protein expression: over 4 days
Protocol: Rabbit anti-PAX2 polyclonal antibody (Zymed) diluted 1:1000 in TBS, 0.1% fat free milk powder, 0.1% Tween-20 was used for PAX-2 detection following overnight incubation with the membrane. After 3×10 min washes in TBS, 0.1% Tween-20, horseradish peroxidase conjugated goat antirabbit IgG (1:10,000, Biorad) was used as a secondary antibody. To detect biotin, horse radish peroxidase conjugated extravidin (1:3,000, Sigma) was used. In both cases secondary antibody binding was carried out for 1 h at room temperature, followed by 3×10 min washes in TBS and visualized by chemiluminescence using a Pierce Super Signal R chemiluminescence substrate with Kodak X-OMAT™ AR imaging film.

[2] = test system: HNF4α pre-mRNA; assay: RT-PCR of HNF4α mRNA, exon 9 skipping in BNL-CL2 liver cells; assay type: cell-based, mouse
Protocol: A mouse liver cell line, BNL-CL2, was grown at 37° C. and 5% CO2 in humidified atmosphere in Dulbecco's Modified Eagle's Medium supplemented with 10% inactivated FBS, 100 units.mL−1 penicillin, and 100 μg.mL−1 streptomycin, but without sodium pyruvate. To culture the cells with PNA, cells were seeded into a 96-well-plate, followed 16 h later by addition of 1 μM TPP-fluPNA alone or in an aqueous solution of 150 μM Chloroquine, and cultured for another 70 h. Images were acquired using a Zeiss inverted confocal microscope with 488 nm excitation wavelength light for tracking the TPP-fluPNA. Mitochondria specific dye MitoTracker Red CMXRos was added into cultured medium 2 h before taking confocal images using 578 nm excitation wavelength light.
Total RNA was extracted from cells cultured with either fluoresceinated or non-fluoresceinated TPP-PNA, or with PNA dissolved in 150 μM Chloroquine, or with medium controls for 24 h or 72 h. The concentration of extracted RNA was quantified using a NanoDrop spectrophotometer, and 1 μg of total RNA was reverse transcribed into cDNA using Invitrogen SuperScript III and random primers. […]. […]

[3] = test system: human fibroblasts; assay: Confocal immunofluorescent microscopy of fixed fibroblasts; assay type: cell-based; conditions: 1 μM, 30 min, 1 h and up to 4 h
Protocol: For immunocytochemistry trypsinised human fibroblasts (5,000 cells per well) were plated onto 13 mm diameter glass coverslips in 24 well plates overnight. Following incubation for 4 h at 37° C. with 1 μM TPP-PNA conjugates, cells were fixed with 4% paraformaldehyde (PFH) in TBS for 30 min, washed with TBS and incubated with 10% FCS/0.1% Triton X-100/TBS (TBST) for 10 min. The IgG fraction of anti-triphenylphosphonium serum (1:500) was diluted in TBST, then added and incubated overnight at 4° C. The IgG fraction of preimmune serum was used as a control. After washing with TBS (3×5 min) the cells were incubated with anti-rabbit IgG Oregon green fluorophore-conjugated secondary antibody diluted 1:100 in TBS for 15 min in the dark. The cells were washed in TBS and incubated for another 15 min with streptavidin conjugated CY3 (1:200, Molecular Probes) in the dark, to detect biotin. Cells were then washed in TBS, mounted in DABCO/PVA medium (15 g PVA, 15 g 1,4-diazabicyclo (2,2,2) octane in 30% glucerol in 0.1 M Tris, pH 8.5) and mounted onto coverslips. […]
The localisation of TPP-PNA conjugate within human fibroblasts was also determined by fixing cells that had been incubated with TPP-PNA, PNA or without any additions for up to 4 h and visualising the localisation of the PNA by confocal immunofluorescent microscopy (FIG. 6). […]

[4] = test system: P388 cells; assay: Gel/blot detection of PNA and phosphonium in fractions of conjugate-treated P388 cells; assay type: cell-based, mouse; conditions: after treatment with TPP-PNA, FIG. 5D
Protocol: Cells (143B, human fibroblasts, COS-7, P388 and IMCD) were grown at 37° C. and 5% CO2 in humidified atmosphere in Dulbecco's modified Eagle's medium supplemented with 10% inactivated foetal calf serum (FCS). All cell culture media contained 100 units.mL^−1 penicillin, and 100 μg.mL^−1 streptomycin. Protein was quantitated by the bicinchoninic acid assay. Cells were incubated with 1 μM TPP-PNA or with PNA alone for the indicated times. The disulfide bond in the TPP-PNA is stable in the oxidizing extracellular environment but is labile in the reducing cytoplasmic mulieu (FIG. 1).
For conjugate detection, 143B cell lysates treated with TPP-PNA conjugates (˜5 nmol) in 20 μL loading buffer (50 mM Tris, 4% SDS, 12% glycerol, 2% 2-mercaptoethanol, 0.01% coomassie brilliant blue) were separated on 18.5% Tris-tricine gels using a BioRad Mini Protean system (Schagger and von Jagow, 1987). For PAX-2 detection, P388 and IMCD cell lysates in loading buffer were resolved on 12.5% Tris-glycine gels (Laemmli, 1970). […]
The P388 cells were treated as described before, the lysates were resolved on Tris-tricine gels and the TPP-fluPNA conjugates were detected using a GelDoc fluorescence imager. […]

[5] = test system: P388 leukemia cancer cells; assay: General cell proliferation of treated P388 cells; assay type: cell-based, mouse; conditions: 1 μM
From the text: To investigate the biological effects of the anti-PAX2 TPP-fluPNA conjugate we used a mouse cell line that highly expresses the PAX2 protein. […] This is most likely due to the absence of the cation that effectively delivers the PNA to the cells.

Fluoroscein-XX-TTCACACCCCCGTGCC-X-Cys-CO2H (5' fluorescein via linkers, 3' linker and cysteine, further chemistry not given here) [unmodified anti-PAX2 PNA, unconjugated fluoroscein-tagged PNA oligomer targeting human and mouse PAX2 mRNA, reference compound]
PAX2 protein expression [1]: did not decrease PAX2 protein levels

TPP-lysPNA(HNF4-α): Lys-GTCCCAGACGGT-Cys-COOH PNA targeting mouse HNF4α mRNA, conjugated with TBTP
Exon 9-skipped splice variant RT-PCR product ([2]; 1 μM in cell culture media for 70 h, no transfection reagent): A 352 bp RT-PCR product was observed | Exon 9-skipped splice variant RT-PCR product ([2]; transfected using chloroquine): A 352 bp RT-PCR product was observed

Biotin-XX-GTTGGCTCTCT-X-Cys-CO2H [bioPNA]
Uptake of unconjugated PNA [3]: uptake (red) only after 4 h

thiobutyltriphenylphosphonium [TBTP]
Localisation of phosphonium cation, anti-phosphonium serum [4]: detected in the mitochondrial fractions

TPP-fluPNA(PAX-2): Fluoroscein-XX-TTCACACCCCCGTGCC-X-Cys-CO2H PNA targeting PAX2 mRNA, disulfide linked to thiobutyltriphenylphosphonium (all peptide nucleic acid (PNA); 5' fluorescein via linkers, 3' linker-Cys disulfide-linked to triphenylphosphonium)
General cell proliferation [5]: did not affect general cell proliferation | Duration of inhibition of PAX2 expression [1]: 4 days | PAX2 protein expression [1]: significant inhibition of PAX2 expression

Source: patent US20080108545A1, “Peptide Nucleic Acid Conjugates and Uses Thereof” (UNIVERSITY OF OTAGO, priority 2003, published 2008)
